# Results from PMC4818699 (Angewandte Chemie (International ed. in English), 2016).
# Tested on: MoeN5 (MoeN5-CS) (Streptomyces viridosporus)
# Test: X-ray crystal structure of the complex
# Type: binding
# Conditions: allylic site S1, near Asp-rich motifs; also PDB 5B03
# Chain of MoeN5 (MoeN5-CS) (Streptomyces viridosporus) (A0A010 1-260): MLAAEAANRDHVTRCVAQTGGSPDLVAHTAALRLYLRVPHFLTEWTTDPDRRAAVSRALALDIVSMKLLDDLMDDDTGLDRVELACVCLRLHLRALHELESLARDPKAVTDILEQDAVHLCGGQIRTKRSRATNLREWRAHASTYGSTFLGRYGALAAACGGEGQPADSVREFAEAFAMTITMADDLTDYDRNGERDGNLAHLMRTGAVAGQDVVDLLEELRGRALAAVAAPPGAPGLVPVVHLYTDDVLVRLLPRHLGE
smiles,measurement,value
"CC(C)=CCC/C(C)=C/COP(=O)(O)OP(=O)(O)O [compound 6, geranyl diphosphate]",X-ray crystal structure of the complex,GPP binds to MoeN5-CS close to the Asp-rich domains
